≈ marks a conversion by molar mass, not a printed value.
Legend:
[1] = Stability / isomerization in solvents; format: physicochemical; conditions: for stability in solvents: CH2Cl2, CHCl3, MeOH, and EtOH at room temperature; for stability on prolonged storage: in alcohol over several weeks
Excerpt: The resulting mixture was purified on HPLC yielding 4 and its diastereomer 5. […] The ^1H and ^13C NMR data of 4 and 5 were almost identical (Tables S2 and S3 of the appendix of U.S. Provisional Patent Application 62/295,343). […] Thus, the absolute configuration of C-3′-C-5′ was deduced as 3'S,4'S,5'S, opposite to that of 4.

[2] = tested on: IL-1 alpha; assay: IL-1 alpha cytokine response in media of EpiDerm tissues (ELISA); format: cell-based, human; conditions: media of EpiDerm tissues after exposure
Method: IL-1 alpha secretion was not elevated in response to the test compounds, indicating a low potential for allergic reactions. […] Cytokine levels were determined by ELISA.

[3] = tested on: EpiDerm™ reconstructed human epidermis tissues; assay: Time course toxicity in EpiDerm tissues (MTT assay); format: cell-based; conditions: after 24 hours
Method: All substances are safe for greater than 24 hours, at even a very high dose of 500 μM. […] Viability of EpiDerm™ tissues was determined by MTT assay.

[4] = tested on: four Tolypocladium spp. (T1-T4), four Penicillium spp. (P1-P4) and Aspergillus niger (A1); assay: Antifungal test (MIC) against a panel of test fungi; format: cell-based; conditions: against all of the fungal strains of the panel, 72 h, 25° C., MIC = >80% growth reduction, read-out: MIC (growth inhibition)
Method: This prompted us to ask the question what effect the addition of the shikimate analogue moiety had on the bioactivities of compounds 8, 9, 12, and the other nucleophilic substances that we tested. A panel of fungi including four Tolypocladium spp. (T1-T4), four Penicillium spp. (P1-P4) and Aspergillus niger (A1) were selected for assessment. […] To test the capacity of 11 to block the toxicity of 13 in real time, fungal cultures were preincubated with 11 and then treated with varying doses of 13. This regimen of preadministering 11 afforded up to an 8-fold decrease in the MIC of 13 (FIG. 15A). […] We had also noted that the addition of NaNO3 to the culture medium thoroughly abolished the formation of 10 and 11. […] Whereas previously reported resistance mechanisms involving antibiotic modification depended on the enzymatic modification of target substrates, fungal metabolites 10 and 11 functioned as electrophilic warheads that were reactive to a wide variety of natural and synthetic organic substances. […]
(§1) The effects of compounds on fungal growth of fungi were tested using the method described in the NCCLS M38-A guidelines with following modifications. […] After 72 h of incubation at 25° C., the optical densities of fungi were measured using a microplate reader (Infinite M200, Tecan Group Ltd.). […]

[5] = tested on: fungi T1, T2, P1, P4, and A1; assay: Antifungal test of 13 on fungal cultures preincubated / co-treated with 11; format: cell-based, Tolypocladium spp., Penicillium spp., Aspergillus niger
Excerpt: (§2) Media types: PDB (potato dextrose broth); PDB-N(PDB plus 2 g/L NaNO3); PDB 8:2 (mixture of centrifuged broth of T1 grown in PDB for 5 days with fresh PDB at the ratio of 8:2); PDB-N 8:2 (mixture of centrifuged broth of T1 grown in PDB-N for 5 days with fresh PDB at the ratio of 8:2).
This prompted us to ask the question what effect the addition of the shikimate analogue moiety had on the bioactivities of compounds 8, 9, 12, and the other nucleophilic substances that we tested. A panel of fungi including four Tolypocladium spp. (T1-T4), four Penicillium spp. (P1-P4) and Aspergillus niger (A1) were selected for assessment. […] To test the capacity of 11 to block the toxicity of 13 in real time, fungal cultures were preincubated with 11 and then treated with varying doses of 13. This regimen of preadministering 11 afforded up to an 8-fold decrease in the MIC of 13 (FIG. 15A). […] We had also noted that the addition of NaNO3 to the culture medium thoroughly abolished the formation of 10 and 11. […]
as §1

[6] = tested on: Tolypocladium sp. T1; assay: Antifungal test against T1 in PDB / PDB-N media (fresh or 5-day-old T1 broth); format: cell-based; conditions: for effect of supplemental NaNO3 in test medium on antifungal efficacy: against T1, PDB-N = PDB plus 2 g/L NaNO3; for sensitivity of T1 to antifungal activity, normal versus NaNO3-supplemented medium: freshly prepared media, 3-day test window; for resistance of T1 culture: test medium prepared from 5-day-old T1 culture broth, non-NaNO3-supplemented
Excerpt: as §2
This prompted us to ask the question what effect the addition of the shikimate analogue moiety had on the bioactivities of compounds 8, 9, 12, and the other nucleophilic substances that we tested. A panel of fungi including four Tolypocladium spp. (T1-T4), four Penicillium spp. (P1-P4) and Aspergillus niger (A1) were selected for assessment. […] To test the capacity of 11 to block the toxicity of 13 in real time, fungal cultures were preincubated with 11 and then treated with varying doses of 13. This regimen of preadministering 11 afforded up to an 8-fold decrease in the MIC of 13 (FIG. 15A). […] We had also noted that the addition of NaNO3 to the culture medium thoroughly abolished the formation of 10 and 11. […] Whereas previously reported resistance mechanisms involving antibiotic modification depended on the enzymatic modification of target substrates, fungal metabolites 10 and 11 functioned as electrophilic warheads that were reactive to a wide variety of natural and synthetic organic substances. The actions of these metabolites serve to limit the deleterious effects of antibiotics/toxins against their microbial targets.
The effects of compounds on fungal growth of fungi were tested using the method described in the NCCLS M38-A guidelines with following modifications. Fungi were cultured on PDA plates (potato dextrose agar, Becton Dickinson and Company) at 25° C. for 6-10 days. The spores/mycelia were disrupted by mechanical agitation and diluted in RPMI 1640 medium (Sigma Chemical Corporation) buffered to pH 7.0 with MOPS (0.165 M, Sigma). Test compounds were prepared in DMSO or EtOH at stock concentrations of 10 mM before being serially diluted in 50 μL RPMI 1640 plus MOPS medium for testing. Aliquots of spore suspension were added to the medium containing the diluted compounds or vehicle (<1% by vol.). After 72 h of incubation at 25° C., the optical densities of fungi were measured using a microplate reader (Infinite M200, Tecan Group Ltd.). The minimum inhibitory concentration (MIC) for growth was defined as the lowest concentration causing prominent growth reduction (>80%). The RPMI 1640 medium was replaced by PDB medium or PDB-N(PDB with 2 g/L NaNO3) for the indicated antifungal tests.

[7] = Thiol neutralization on pig skin (LCMS); conditions: with spermine in 50% propylene glycol, 2-phenylethanethiol, 10 min
Method: After the Pericosine composition was applied to the thiol on the pig skin and allowed to react for 10 minutes, an eluate from the treated area was analyzed with LCMS. Only a pericosine-thiol conjugate was detected.
Pericosine A, spermine, and the model thiol compound 2-phenylethanethiol were prepared into 100 mM stock solutions in dimethyl sulfoxide (DMSO). 5 uL pericosine A and 5 uL spermine solutions were pre-mixed into 50 uL 50% propylene glycol to form a test composition. A piece of pig skin (1 inch×1 inch) was placed in a 10-cm ID petri dish. 5 uL of the thiol solution was dispensed onto the pig skin sample. The pericosine test composition was applied to the thiol-treated spot on the pig skin sample. The petri dish was covered and gently agitated to cause the thiol sample to mix with the pericosine test composition. After 10 min incubation, the solution on the pig skin was transferred using a pipet into an Eppendorf tube. The treated spot on the pig skin was extracted with 100 uL MeOH and the MeOH solution was combined with the solution in the Eppendorf tube. After mixing and centrifuging, the mixed solution was subjected to LCMS analysis.
As shown in FIG. 21(a), a major pericosine-thiol conjugated product was detected by the LCMS analysis in the solution removed from the pig skin.

| Molecule | stability in solvents [1] | stability on prolonged storage [1] | effect of supplemental NaNO3 in test medium on antifungal efficacy [6] | sensitivity of T1 to antifungal activity, normal versus NaNO3-supplemented medium [6] | resistance of T1 culture [6] | further results |
| --- | --- | --- | --- | --- | --- | --- |
| pseudomaximiscin A [Compound 4] | stable for several days | modest levels of compound rearrangement |  |  |  | stability in DMSO-d6 ([1]; dissolved in DMSO-d6): Rapid isomerization |
| Triton X-100 |  |  |  |  |  | IL-1 alpha secretion [2]: significant response; EpiDerm tissue outcome ([3]; 1% control in the test with activating compound and fragrance): epidermal death; EpiDerm tissue outcome ([3]; 1% control, MTT assay): epidermal death |
| Cc1cc(C2CCCCC2)n(O)c(=O)c1 [Compound 13, ciclopirox] |  |  | enhanced | equally sensitive | increasingly resistant | MIC [4]: 1 to 50 µM (≈ 0.207 to 10.4 µg/mL); antifungal efficacy of 13 on co-treatment with 11 ([5]; co-treatment by 11 plus 13, fungi T1, T2, P1, P4, A1): reduced; decrease in the MIC of 13 ([5]; fungal cultures preincubated with 11, then treated with varying doses of 13): ≤ 8 fold |
| PF1140 [Compound 8] |  |  | enhanced | equally sensitive | increasingly resistant |  |
| COC(=O)C1=C[C@H](O)[C@H](O)[C@H](O)[C@H]1Cl [Compound 11, (+)-pericosine A] |  |  |  |  |  | neutralization of thiol on a surface (pig skin) ([7]; listed as Pericosine A): completely neutralize; neutralization of thiol on a surface (pig skin) ([7]; listed as pericosine A): quantitative consumption |
| pseudomaximiscin B [Compound 5] | stable for several days | modest levels of compound rearrangement |  |  |  |  |

Reference: patent US20220144747A1, “SHIKIMATE ANALOGUES AND METHODS OF USE” (The Board of Regents of the University of Oklahoma, priority 2016, published 2022)
